Test results: patent US8168220B2, “Dosage forms of active ingredients containing hydroxystilbene for treating menopausal complaints” (priority 2005, dated 2012)
Entries after “also recorded” stand apart in the source; their conditions may differ.

Tests used:
[1] = Dissolving tests with ERr 731 in ethanol and glycerol; format: physicochemical
Description: a) Dissolving Tests with ERr 731® in Ethanol and Glycerol:
Test A: 200 mg of dry extract in 50 ml of glycerol R:
Test B: 200 mg of dry extract in 50 ml of ethanol 30% R:
Test C: 200 mg of dry extract in 50 ml of ethanol 50% R:
Test D: 200 mg of dry extract in 50 ml of ethanol 86% R: […]

[2] = molecular target: T1, estrogen receptor β (ERβ) (Homo sapiens, UniProt Q92731); assay: ERβ/mC3-luciferase transactivation in HEC-1B cells; format: cell-based; conditions: 24 hours incubation, FIG. 5
T1 construct: expressed in transfected cells; host or cells: HEC-1B cells (human endometrial adenocarcinoma; no endogenous ERα or ERβ), transient transfection with DOTAP
T1 sequence (Q92731 whole entry): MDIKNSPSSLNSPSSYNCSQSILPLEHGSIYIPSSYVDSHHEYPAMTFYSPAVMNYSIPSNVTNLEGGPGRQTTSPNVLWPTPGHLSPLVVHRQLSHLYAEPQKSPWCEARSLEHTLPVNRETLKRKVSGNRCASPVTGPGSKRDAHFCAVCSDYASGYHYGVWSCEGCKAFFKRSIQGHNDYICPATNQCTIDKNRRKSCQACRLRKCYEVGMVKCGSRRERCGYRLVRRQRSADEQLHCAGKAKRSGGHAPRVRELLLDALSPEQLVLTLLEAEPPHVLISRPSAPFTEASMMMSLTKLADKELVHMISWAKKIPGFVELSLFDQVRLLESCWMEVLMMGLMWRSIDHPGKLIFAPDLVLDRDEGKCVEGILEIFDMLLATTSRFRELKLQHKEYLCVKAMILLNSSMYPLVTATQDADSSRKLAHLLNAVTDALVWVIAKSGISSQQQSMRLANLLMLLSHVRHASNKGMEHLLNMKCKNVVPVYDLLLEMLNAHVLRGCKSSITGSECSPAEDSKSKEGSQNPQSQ
Source text: They therefore represent a possible way of investigating, in a human and endometrial context, ligand-dependent effects of substances on the transactivation mechanisms in relation to different receptor subtypes and different estrogen-responsive promoters.
An established ERβ/mC3-luciferase system was employed. For this purpose, HEC-1B cells were applied in 24-well plates with a density of 95 000 cells/well (in Dulbecco's modified Essential Medium (DMEM/F12)). The next day, they were cotransfected with an ERβ-containing construct (hERβ/pSG2) and a triple-ERE-containing promoter/luciferase construct (mC3-Luc/pGL2) (Hillisch et al. Dissecting physiological roles of estrogen receptor alpha and beta with potent selective ligands from structure-based design. Mol Endocrinol. 2004 July; 18:1599-609). The transient transfection took place using DOTAP (N-[1-(2,3-dioleoyloxy)]-N,N,N-trimethylammoniumpropane methyl-sulfate, Roth) as described by the manufacturer.
After 24 hours, the cells were treated with appropriate concentrations of the substances or substance mixtures to be investigated. […] The incubation time was 24 hours. The cells were then lysed. The Luciferase Assay® kit (Promega) was used to determine the luciferase activity on the one hand, and the BCA® kit (Sigma) was used to determine the protein content on the other hand. […]

[3] = pH-dependent solubility of rhaponticin in aqueous solutions; format: physicochemical; conditions: acidic pH range (pH 3.4-3.6)
Source text: Use is made of this for its isolation. Since, besides other organic acids, the root in particular has a high content of oxalic acid (⅔ in water-soluble and ⅓ in bound form), this must be neutralized during the isolation in order to prevent the pH drifting into the acidic range and thus to inhibit premature precipitation of the rhaponticin. This is achieved by using calcium oxide. The latter is employed as quicklime solution with a pH of 12.4-12.6.

[4] = Pharmacokinetics of ERr 731 ingredients in a subject (plasma LC-MS/MS); format: in vivo, human; conditions: 40 mg ERr 731 orally (10 tablets)
Description: Subsequently, 10 ml of blood was taken at various times (as indicated in FIG. 1) and the plasma was obtained by centrifugation.
These plasma samples were processed as follows: 500 μl of plasma were mixed with 25 μl of an internal standard working solution (2.5 ng/μl rhaponticin or rhapontigenin in methanol) and then mixed with 500 μl of isotonic NaCl solution and 2.5 ml of diethyl ether/butanol (9/1; v/v). After shaking and centrifugation (10 minutes at 4600 rpm), about 2 ml of the supernatant were removed and dried under a stream of nitrogen (at 60° C.). The pellet was taken up in 50 μl of methanol. Addition of 200 μl of distilled water was followed by renewed mixing, and 200 μl were pipetted into autosampler tubes (light-protected). 30 μl of the samples were injected for analysis into an LC-MS/MS system (PE Sciex API 3000). Chromatographic separation of the analytes took place on a Phenomenex Polymer X column with a gradient of an ammonium buffer solution and an acetonitrile/methanol mixture as mobile phase.

[5] = Test A: 200 mg of dry extract in 50 ml of glycerol R
[6] = Test B: 200 mg of dry extract in 50 ml of ethanol 30% R
[7] = Test C: 200 mg of dry extract in 50 ml of ethanol 50% R
[8] = Test D: 200 mg of dry extract in 50 ml of ethanol 86% R

COc1ccc(C=Cc2cc(O)cc(O[C@@H]3O[C@H](CO)[C@@H](O)[C@H](O)[C@H]3O)c2)cc1 [deoxyrhaponticin]
content dissolved [1, 5]: 27.1% deoxyrhaponticin
content dissolved relative to theory [1, 5]: (90.6% of theory)
content dissolved [1, 6]: 25.2% deoxyrhaponticin
content dissolved relative to theory [1, 6]: (84.2% of theory)
content dissolved [1, 7]: 29.0% deoxyrhaponticin
content dissolved relative to theory [1, 7]: (97.0% of theory)
content dissolved [1, 8]: 29.5% deoxyrhaponticin
content dissolved relative to theory [1, 8]: (98.7% of theory)

COc1ccc(C=Cc2cccc(O)c2)cc1O [deoxyrhapontigenin, 3′,5-Dihydroxy-4′-methoxystilbene]
activation of ERβ (relative luciferase activity vs DMSO control) [2]: activate the ERβ dose-dependently; also recorded: effective only at higher concentrations

COc1ccc(C=Cc2cc(O)cc(O[C@@H]3O[C@H](CO)[C@@H](O)[C@H](O)[C@H]3O)c2)cc1O [rhaponticin, 3,3′,5-Trihydroxy-4′-methoxystilbene 3-O-β-D-glucopyranoside]
content dissolved [1, 5]: 55.1% rhaponticin
content dissolved relative to theory [1, 5]: (89.0% of theory)
content dissolved [1, 6]: 52.2% rhaponticin
content dissolved relative to theory [1, 6]: (84.3% of theory)
content dissolved [1, 7]: 58.8% rhaponticin
content dissolved relative to theory [1, 7]: (95.0% of theory)
content dissolved [1, 8]: 59.8% rhaponticin
content dissolved relative to theory [1, 8]: (96.6% of theory)
solubility in aqueous solutions [3]: precipitated as yellowish substance
detection in the blood [4]: detected in the blood
time of maximum in the blood [4]: 3 to 4 h
